Among the data in PubChem BioAssay AID1259408 (Genetic Toxicology Data Bank (GENE-TOX), 2018) are mutagenic call and call values, retold here.

The source made the active and inactive calls. No rule for the calls is given here.

The series has as its system GENE-TOX genotoxicity assays, various organisms and cells. In words: GENE-TOX mutagenicity studies. Conditions: for call: Assay Type: In vivo carcinogenicity studies.
The mark [1] stands for this setting: Species/Cell Type: Bacillus subtilis (H17 vs M45), Assay Type: Rec-assay, spot test, DNA effects (bacterial DNA repair), Assay Code: REW-, Evaluation Type: Evaluation A (Pre-1980).
Where [2] appears, read: Species/Cell Type: Salmonella typhimurium (one or more of the five standard strains: TA98, TA100, TA1535, TA1537, and TA1538), Assay Type: Histidine reverse gene mutation, Ames assay, Assay Code: SAL+, Evaluation Type: Evaluation A (Pre-1980).
Setting [3] is: Species/Cell Type: Drosophila melanogaster, Assay Type: Sex-linked recessive lethal gene mutation, Assay Code: SRL+, Evaluation Type: Evaluation A (Pre-1980).
The mark [4] stands for this setting: Species/Cell Type: Salmonella typhimurium, Assay Type: Forward and reverse gene mutation, host-mediated assay, Assay Code: HMA+, Evaluation Type: Evaluation A (Pre-1980).
[5] abbreviates: Species/Cell Type: Bacillus subtilis (H17 vs M45), Assay Type: Rec-assay, spot test, DNA effects (bacterial DNA repair), Assay Code: REWT, Evaluation Type: Evaluation A (Pre-1980).
Setting [6] is: Species/Cell Type: Bacillus subtilis (H17 vs M45T), Assay Type: Rec-assay, spot test, DNA effects (bacterial DNA repair), Assay Code: REXT, Evaluation Type: Evaluation A (Pre-1980).
Setting [7] is: Species/Cell Type: Salmonella typhimurium (one or more of the five standard strains: TA98, TA100, TA1535, TA1537, and TA1538), Assay Type: Histidine reverse gene mutation, Ames assay, Assay Code: SALT, Evaluation Type: Evaluation A (Pre-1980).
[8] abbreviates: Species/Cell Type: Human diploid fibroblasts, Assay Type: Unscheduled DNA synthesis (UDS) in vitro, DNA effects, Assay Code: UDH-, Evaluation Type: Evaluation A (Pre-1980).
Where [9] appears, read: Species/Cell Type: Saccharomyces cerevisiae, Assay Type: Mitotic recombination or gene conversion, Assay Code: YEH-, Evaluation Type: Evaluation A (Pre-1980).
Where [10] appears, read: Species/Cell Type: Nonhuman, Assay Type: Sister-chromatid exchange (SCE) in vitro, Assay Code: SC2+, Evaluation Type: Evaluation B (Post-1980).
Where [11] appears, read: Species/Cell Type: Salmonella typhimurium (one or more of the five standard strains: TA98, TA100, TA1535, TA1537, and TA1538), Assay Type: Histidine reverse gene mutation, Ames assay, Assay Code: SAL-, Evaluation Type: Evaluation A (Pre-1980).
The mark [12] stands for this setting: Species/Cell Type: Syrian hamster embryo (SHE) cells, Assay Type: Cell transformation, clonal assay, Assay Code: CTC-, Evaluation Type: Evaluation A (Pre-1980).
Setting [13] is: Species/Cell Type: Nonhuman, Assay Code: CCG+, Evaluation Type: Evaluation A (Pre-1980).

In the case of `[Cl][Pd][Cl]`, under setting [1], the mutagenic call is “inactive; negative”.

`O=C(O)/C=C/c1ccc([N+](=O)[O-])o1`: the mutagenic call under setting [2] was “active; positive”.

As for `CC1CCCN(N=O)C1` (centres undefined), the mutagenic call under setting [3] was “active; positive”; the mutagenic call (Species/Cell Type: Saccharomyces cerevisiae, Assay Type: Forward gene mutation, Assay Code: YEF+*, Activation: With metabolic activation, Evaluation Type: Evaluation A (Pre-1980)) is “active; positive”; the mutagenic call (Species/Cell Type: Saccharomyces cerevisiae, Assay Type: Reverse gene mutation, Assay Code: YER+*, Activation: With metabolic activation, Evaluation Type: Evaluation A (Pre-1980)) was “active; positive”; the mutagenic call (Species/Cell Type: Salmonella typhimurium (one or more of the five standard strains: TA98, TA100, TA1535, TA1537, and TA1538), Assay Type: Histidine reverse gene mutation, Ames assay, Assay Code: SAL+*, Activation: With metabolic activation, Evaluation Type: Evaluation A (Pre-1980)) is “active; positive”. Where the note is “Species/Cell Type: Nonhuman, Assay Code: CCG+L, Evaluation Type: Evaluation A (Pre-1980)”, the call is “active; positive”.

As for `CCN(CC)Cc1cc(Br)ccc1OCC(=O)NN`, under “Species/Cell Type: Saccharomyces cerevisiae, Assay Type: Reverse gene mutation, Assay Code: YERT, Evaluation Type: Evaluation A (Pre-1980)”, the mutagenic call is on record as “no conclusion”.

With `O=[N+]([O-])c1ccc(N2CCN(c3ccccc3)CC2)c2c1no[n+]2[O-]`, under setting [2], the mutagenic call was “active; positive”.

Turning to `CCCCNC(=O)N(CCCC)c1nc(-c2ccccc2)cs1`, under setting [4], the mutagenic call is “active; positive”.

Take `O=[N+]([O-])c1cc([N+](=O)[O-])c2ccc(S(=O)(=O)O)cc2c1O`: the mutagenic call under setting [5] is given as “no conclusion”, the mutagenic call under setting [6] was “no conclusion”, the mutagenic call under setting [2] is “active; positive” and the mutagenic call under setting [7] is given as “no conclusion”.

Regarding `C=CCC1=C(C)C(OC(=O)[C@@H]2[C@@H](C=C(C)C)C2(C)C)CC1=O` (some centres undefined), the mutagenic call reads like this: under setting [8], “inactive; negative”; under setting [9], “inactive; negative”.

On to `ON=C1CCCCC1`, for which, for the setting “Species/Cell Type: Drosophila melanogaster, Assay Type: Sex-linked recessive lethal gene mutation, Assay Code: SRLT, Evaluation Type: Evaluation A (Pre-1980)”, the mutagenic call was “no conclusion”.

As to `C#CC(C)OC(=O)Nc1cccc(Cl)c1` (centres undefined) (tested in a mixture with another compound), where the note is “Species/Cell Type: Saccharomyces cerevisiae, Assay Type: Mitotic recombination or gene conversion, Assay Code: YEC-, Evaluation Type: Evaluation A (Pre-1980)”, the mutagenic call was “inactive; negative”.

Regarding `[Mg+2]`, the mutagenic call under setting [1] was “inactive; negative”.

With `CCCCOc1ccc(CC(=O)NOS(=O)(=O)O)cc1`, under setting [10], the mutagenic call was “active; positive”.

As to `O=NN(CCCl)C(=O)NCCCCNC(=O)N(CCCl)N=O`, the mutagenic call runs as follows: under setting [3], “active; positive”; (Species/Cell Type: Saccharomyces cerevisiae, Assay Type: Mitotic recombination or gene conversion, Assay Code: YEC+, Evaluation Type: Evaluation A (Pre-1980)) “active; positive”.

Turning to `O=C1CCCCCO1`, the mutagenic call is “inactive; negative” (Species/Cell Type: Escherichia coli polA (W3110 vs P3478), Assay Type: Rec-assay, DNA effects (bacterial DNA repair), Assay Code: RE2-, Evaluation Type: Evaluation A (Pre-1980)); “inactive; negative” (Species/Cell Type: Escherichia coli polA (W3119 vs P3478), Assay Type: Rec-assay, DNA effects (bacterial DNA repair), Assay Code: RE1-, Evaluation Type: Evaluation A (Pre-1980)); “inactive; negative” (Species/Cell Type: Mouse lymphoma (L5178Y) cells, Assay Type: Forward gene mutation at the thymidine kinase (TK) locus, chromosome aberrations, Assay Code: L51-, Evaluation Type: Evaluation A (Pre-1980)); “inactive; negative” (Species/Cell Type: Nonhuman, Assay Type: Sister-chromatid exchange (SCE) in vitro, Assay Code: SC2-, Evaluation Type: Evaluation A (Pre-1980)); “inactive; negative” under setting [9]; “inactive; negative” under setting [11]. Further, the mutagenic call reads like this: (Species/Cell Type: Salmonella typhimurium, Assay Type: Forward and reverse gene mutation, host-mediated assay, Assay Code: HMA-, Evaluation Type: Evaluation A (Pre-1980)) “inactive; negative”; under setting [12], “inactive; negative”.

As for `C=Cc1cccc(C)c1`, the mutagenic call (Species/Cell Type: Human lymphocytes, Assay Type: Sister-chromatid exchange (SCE) in vitro, Assay Code: SCL+D, Dose Response: With dose response, Evaluation Type: Evaluation B (Post-1980)) was “active; positive” and the mutagenic call (Species/Cell Type: Human, Assay Type: Sister-chromatid exchange (SCE) in vitro, Assay Code: SC1+D, Dose Response: With dose response, Evaluation Type: Evaluation B (Post-1980)) is “active; positive”.

As for `COc1cc2c(c3oc4cccc(OC(C)=O)c4c(=O)c13)C1C=COC1O2` (centres undefined), the mutagenic call under setting [7] was “no conclusion”.

In the case of `CN(C)c1ccc(Cc2ccc(N(C)C)cc2)cc1`, the mutagenic call by setting is: (Species/Cell Type: Escherichia coli polA (W3119 vs P3478), Assay Type: Rec-assay, DNA effects (bacterial DNA repair), Assay Code: RE1+, Evaluation Type: Evaluation A (Pre-1980)) “active; positive”; (Species/Cell Type: Fischer rat embryo (RLV/1706) cells, Assay Type: Cell transformation, viral enhanced, Assay Code: CTR+, Evaluation Type: Evaluation A (Pre-1980)) “active; positive”; under setting [8], “inactive; negative”; under setting [10], “active; positive”; under setting [9], “inactive; negative”; under setting [4], “active; positive”. For the same compound, for the setting “Species/Cell Type: Syrian hamster embryo (SHE) cells, Assay Type: Cell transformation, clonal assay, Assay Code: CTC+, Evaluation Type: Evaluation A (Pre-1980)”, the mutagenic call was “active; positive”. The call under setting [13] was “active; positive”.

Consider `Clc1cccc(-c2ccc(Cl)c(Cl)c2Cl)c1Cl`, for which the mutagenic call is “no conclusion” (Species/Cell Type: Mammalian polychromatic erythrocytes, Assay Type: Micronucleus test, chromosome aberrations, Assay Code: MNTT, Evaluation Type: Evaluation A (Pre-1980)); “inactive; negative” (Species/Cell Type: Mouse, Sex: Male, Assay Type: Sperm morphology, Assay Code: SPI-, Evaluation Type: Evaluation A (Pre-1980)); “inactive; negative” (Species/Cell Type: Rodents, Sex: Male, Assay Type: Dominant lethal test, Assay Code: DLT-, Evaluation Type: Evaluation A (Pre-1980)); “inactive; negative” under setting [12].

As for `Clc1ccc(C(c2ccccc2Cl)C(Cl)(Cl)Cl)cc1` (centres undefined), the mutagenic call (Species/Cell Type: Nonhuman, Assay Type: Chromosome aberrations in vitro, Assay Code: CY&+, Evaluation Type: Evaluation A (Pre-1980)) was “active; positive”.

With `Cc1c2ccccc2c(C)c2c1ccc1ccc(F)cc12`, the mutagenic call (Species/Cell Type: Chinese hamster lung (V79) cells, Assay Type: Forward gene mutation at the HPRT or ouabain locus, Assay Code: V79-*, Activation: With metabolic activation, Evaluation Type: Evaluation A (Pre-1980)) is “inactive; negative”.

On to `CCN(Cc1cccc(S(=O)(=O)[O-])c1)c1ccc(C(=C2C=CC(=[N+](C)C)C=C2)c2ccc(N(CC)Cc3cccc(S(=O)(=O)O)c3)cc2)cc1`, for which the mutagenic call is “no conclusion” under setting [5], “no conclusion” under setting [6] and “inactive; negative” under setting [11]. Moreover, under setting [13], the call is “active; positive”.

For the compound `CC(C)CC=O`, the mutagenic call is, setting by setting: (Species/Cell Type: Human lymphocytes, Assay Type: Sister-chromatid exchange (SCE) in vitro, Assay Code: SCL+, Evaluation Type: Evaluation B (Post-1980)) “active; positive”; (Species/Cell Type: Human, Assay Type: Sister-chromatid exchange (SCE) in vitro, Assay Code: SC1+, Evaluation Type: Evaluation B (Post-1980)) “active; positive”.

With `COc1ccc2c(c1)OC(C)(C)[C@@H](c1ccccc1)[C@@H]2c1ccc(OCCN2CCCC2)cc1`, the mutagenic call (Species/Cell Type: Human, Sex: Male, Assay Type: Sperm morphology, Assay Code: SPHT, Evaluation Type: Evaluation A (Pre-1980)) is on record as “no conclusion”.

In the case of `O=C(O)[C@@H]1CCCN1[N+](=O)[O-]`, the mutagenic call under setting [7] is “no conclusion”.

Consider `CCCN(C)N=O`, for which the mutagenic call (Species/Cell Type: Chinese hamster lung (V79) cells, Assay Type: Forward gene mutation at the HPRT or ouabain locus, Assay Code: V79+, Evaluation Type: Evaluation A (Pre-1980)) was “active; positive”.

In the case of `Oc1ccc2ccc3cc4ccccc4c4ccc1c2c34`, the mutagenic call is, setting by setting: (Species/Cell Type: Chinese hamster lung (V79) cells, Assay Type: Forward gene mutation at the HPRT or ouabain locus, Assay Code: V79+/-*, Activation: With metabolic activation, Evaluation Type: Evaluation A (Pre-1980)) “inactive; positive without activation, negative with activation”; under setting [2], “active; positive”. Moreover, the call (Species/Cell Type: Nonhuman, Assay Code: CCGT, Evaluation Type: Evaluation A (Pre-1980)) is reported as “no conclusion”.
